In experiment [1] the target is T1, EGFR T790M/L858R Ba/F3 cell line (Homo sapiens, UniProt P00533, T790M/L858R, cells depend on it).
T1 construct: The constructs were shuttled into the retroviral vector JP1540 using the BD Creator™ System (BD Biosciences)
The experiment can be described thus: Ba/F3 cell proliferation (MTS assay). The following applies: for Remaining cell proliferation activity (% of control): EGFR T790M/L858R Ba/F3. The class given is cell-based, murine. The method, then:
The EGFR mutant L858R, Del E746_A750, L858R/T790M, DelE746_A750/T790M, L858R/T790M/C797S and Del/T790M/C797S Ba/F3 cells were previously described (Zhou et al., Nature 462, (2009), 1070-1074). All cell lines were maintained in RPMI 1640 (Cellgro; Mediatech Inc., Herndon, Calif.) supplemented with 10% FBS 100 units/mL penicillin, 100 units/mL streptomycin, and 2 mM glutamine. L858R cells were maintained in ACL-4 media (Invitrogen, Carlsbad, Calif.) supplemented with 5% FBS, 100 units/mL penicillin, 100 units/mL streptomycin, and 2 mM glutamine. The EGFR 1941R mutation was introduced via site directed mutagenesis using the Quick Change Site-Directed Mutagenesis kit (Stratagene; La Jolla, Calif.) according to the manufacturer's instructions. All constructs were confirmed by DNA sequencing. The constructs were shuttled into the retroviral vector JP1540 using the BD Creator™ System (BD Biosciences). Ba/F3 cells were infected with retrovirus and according to standard protocols, as described previously (Zhou 2009). Stable clones were obtained by selection in puromycin (2 μg/ml).
Growth and inhibition of growth was assessed by MTS assay and was performed according to previously established methods (Zhou 2009). The MTS assay is a colorimetric method for determining the number of viable cells that is based on the bioreduction of MTS by cells to a formazan product that is soluble in cell culture medium and can be detected spectrophotometrically. […] All experimental points were set up in six wells and all experiments were repeated at least three times. […] The curves were fitted using anon-linear regression model with a sigmoidal dose response.
(In general: Tetrazolium assays rely on reduction of a dye to a coloured formazan, in cell work by metabolically active cells.)

For experiment [2], the target named is T2, recombinant EGFR T790M/L858R kinase (Homo sapiens, UniProt P00533, L858R/T790M).
T2 construct: Constructs spanning residues 696-1022 of the human EGFR; GST (cleaved yes); made in house; host or cells: Sf9 insect cells (pTriEX system)
Description: HTRF-based EGFR biochemical assay. On the procedure: Constructs spanning residues 696-1022 of the human EGFR (including wild type and L858R, L858R/T790M, T790M, and T790M/V948R mutant sequences) were prepared in a GST-fusion format using the pTriEX system (Novagen) for expression in Sf9 insect cells essentially as described (Yun et al., PNAS 105, 2070-2075 (2008); Yun et al., Cancer Cell 11, 217-227 (2007)). EGFR kinase proteins were purified by glutathione-affinity chromatography followed by size-exclusion chromatography after cleavage with TEV or thrombin to remove the GST fusion partner following established procedures.
EGFR biochemical assays were carried out using a homogeneous time-resolved fluorescence (HTRF) assay as described previously. […] All reactions were carried out at room temperature in white ProxiPlate™ 384-well Plus plates (PerkinElmer) and were quenched with 5 μL of 0.2 M EDTA at 60 min.
Background: TR-FRET usually uses a lanthanide donor and a delayed reading to cut background.

Where [3] appears, read: absence of cetuximab, read-out: Ba/F3 cellular activity (EC50) T790M/L858R.
The mark [4] stands for this setting: compound at 1 μM in the presence of 1 μg/mL cetuximab.
The mark [5] stands for this setting: read-out: Ba/F3 cellular activity (EC50) T790M/L858R + Cetuximab (1 μg/mL), presence of 1 μg/mL cetuximab.

Read-outs that look alike come from different tables or passages of the source.

T1 sequence (P00533 whole entry T790M/L858R): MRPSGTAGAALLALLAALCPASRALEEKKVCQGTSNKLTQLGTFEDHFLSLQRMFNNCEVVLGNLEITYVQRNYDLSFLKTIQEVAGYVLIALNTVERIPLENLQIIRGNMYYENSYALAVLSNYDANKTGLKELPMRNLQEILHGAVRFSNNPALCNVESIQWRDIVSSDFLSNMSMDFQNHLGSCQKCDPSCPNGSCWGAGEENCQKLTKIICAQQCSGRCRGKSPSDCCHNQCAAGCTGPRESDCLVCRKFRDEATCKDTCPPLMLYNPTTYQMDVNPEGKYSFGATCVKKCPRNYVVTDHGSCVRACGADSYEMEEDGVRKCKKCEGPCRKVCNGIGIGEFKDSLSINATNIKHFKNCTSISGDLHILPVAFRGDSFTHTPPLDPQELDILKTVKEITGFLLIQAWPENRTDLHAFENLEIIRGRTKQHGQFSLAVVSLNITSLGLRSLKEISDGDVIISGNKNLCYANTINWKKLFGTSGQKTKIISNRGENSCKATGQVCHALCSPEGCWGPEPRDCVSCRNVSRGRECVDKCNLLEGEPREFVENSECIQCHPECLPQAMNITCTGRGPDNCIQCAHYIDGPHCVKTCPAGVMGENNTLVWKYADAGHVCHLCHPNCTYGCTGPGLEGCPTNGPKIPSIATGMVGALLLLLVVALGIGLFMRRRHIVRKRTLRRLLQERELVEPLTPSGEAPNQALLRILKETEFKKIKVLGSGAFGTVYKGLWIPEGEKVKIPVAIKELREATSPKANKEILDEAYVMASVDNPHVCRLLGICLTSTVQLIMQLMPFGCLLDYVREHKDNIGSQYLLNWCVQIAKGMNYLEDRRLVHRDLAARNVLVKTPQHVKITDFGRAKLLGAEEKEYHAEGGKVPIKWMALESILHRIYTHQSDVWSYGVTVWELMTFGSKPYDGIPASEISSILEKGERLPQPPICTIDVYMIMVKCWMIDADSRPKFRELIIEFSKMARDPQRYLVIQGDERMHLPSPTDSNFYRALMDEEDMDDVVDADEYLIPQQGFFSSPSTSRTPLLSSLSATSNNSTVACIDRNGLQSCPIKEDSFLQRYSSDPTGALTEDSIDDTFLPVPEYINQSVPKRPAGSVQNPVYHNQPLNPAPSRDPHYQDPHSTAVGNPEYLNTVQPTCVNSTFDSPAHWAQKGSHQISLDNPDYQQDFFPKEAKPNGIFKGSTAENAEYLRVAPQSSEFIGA
T2 sequence (P00533 696-1022 T790M/L858R): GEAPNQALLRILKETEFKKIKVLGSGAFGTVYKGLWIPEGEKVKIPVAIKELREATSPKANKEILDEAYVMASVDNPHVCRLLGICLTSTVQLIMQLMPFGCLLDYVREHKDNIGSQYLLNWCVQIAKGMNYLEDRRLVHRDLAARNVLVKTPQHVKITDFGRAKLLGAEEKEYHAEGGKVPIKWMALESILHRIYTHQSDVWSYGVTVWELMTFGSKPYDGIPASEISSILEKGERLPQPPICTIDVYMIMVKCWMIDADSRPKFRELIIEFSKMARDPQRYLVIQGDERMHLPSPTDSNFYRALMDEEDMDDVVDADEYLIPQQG

Take `CN1CCC(n2cc(-c3ccc4c(c3)C(=O)N(Cc3ccccc3)c3cc(F)ccc3N4)cn2)CC1` [I-3]: the EC50 in experiment [1] (setting [3]) was no less than 0.75 µM; in experiment [1] (setting [5]), less than 0.25 µM. Besides, the entries for the “Remaining cell proliferation activity (% of control)” value in experiment [1] (setting [4]) and in experiment [1] (compound at 1 μM) were “B (25 ≤ B < 50)” and “D (75 ≤ D)”, respectively.

Take `O=C1c2cc(-c3ccc4[nH]ccc4c3)ccc2Nc2ccc(F)cc2N1c1ccccc1` [I-8]: the EC50 in experiment [1] (setting [3]) and in experiment [1] (setting [5]) was no less than 0.75 µM in each case. For the same compound, the “Remaining cell proliferation activity (% of control)” value in experiment [1] (setting [4]) and in experiment [1] (compound at 1 μM) was “D (75 ≤ D)” each time.

For the compound `CC(=O)Nc1ccc2c(c1)N(Cc1ccccc1)C(=O)c1cc(-c3ccc4[nH]ccc4c3)ccc1N2` [I-15], the EC50 in experiment [1] (setting [3]) and in experiment [1] (setting [5]) was no less than 0.75 µM throughout.

For `O=C1c2cc(-c3ccc(N4CCNCC4)cc3)ccc2Nc2ccc(F)cc2N1c1ccccc1` [I-5], the EC50 in experiment [1] (setting [3]) and in experiment [1] (setting [5]) was no less than 0.75 µM each time. Further, the “Remaining cell proliferation activity (% of control)” value in experiment [1] (setting [4]) and in experiment [1] (compound at 1 μM) was “D (75 ≤ D)” in each case.

For `O=C1c2cc(-c3ccc4[nH]ccc4c3)ccc2Nc2ccc(F)cc2N1Cc1ccccc1` [I-2], the EC50 in experiment [1] (setting [3]) is no less than 0.75 µM; in experiment [1] (setting [5]), less than 0.25 µM. Further, the “Remaining cell proliferation activity (% of control)” value was “B (25 ≤ B < 50)” in experiment [1] (setting [4]) and “D (75 ≤ D)” in experiment [1] (compound at 1 μM).

Consider `O=C1c2cc(-c3ccc4[nH]ccc4c3)ccc2Nc2ccc(F)cc2N1Cc1nccs1` [I-10], for which the EC50 in experiment [1] (setting [3]) and in experiment [1] (setting [5]) was no less than 0.75 µM each time. The “Remaining cell proliferation activity (% of control)” value in experiment [1] (setting [4]) and in experiment [1] (compound at 1 μM) was “D (75 ≤ D)” each time.

As to `CN1CCC(n2cc(-c3ccc4c(c3)C(=O)N(Cc3cccc5cc[nH]c35)c3cc(F)ccc3N4)cn2)CC1` [I-25], the EC50 in experiment [1] (setting [3]) and in experiment [1] (setting [5]) was no less than 0.75 µM each time.

As for `O=C1c2cc(-c3ccc(N4CCNCC4)cc3)ccc2Nc2ccncc2N1Cc1ccccc1` [I-13], the EC50 in experiment [1] (setting [3]) and in experiment [1] (setting [5]) was no less than 0.75 µM each time.

On to `O=C1c2cc(-c3ccc(N4CCNCC4)cc3)ccc2Nc2ccc(F)cc2N1Cc1ccc2cc[nH]c2c1` [I-19], for which the EC50 in experiment [1] (setting [3]) and in experiment [1] (setting [5]) was no less than 0.75 µM throughout.

As for `O=C1c2cc(-c3ccc(N4CCNCC4)cc3)ccc2Nc2ncc(F)cc2N1Cc1ccccc1` [I-12], the EC50 in experiment [1] (setting [3]) and in experiment [1] (setting [5]) was no less than 0.75 µM in each case.

As for `O=C1c2cc(-c3ccc(N4CCNCC4)cc3)ccc2Nc2ccccc2N1Cc1ccccc1` [I-11], the EC50 is no less than 0.75 µM in experiment [1] (setting [3]) and 0.25 to 0.5 µM in experiment [1] (setting [5]). For the same compound, the “Remaining cell proliferation activity (% of control)” value in experiment [1] (setting [4]) was “B (25 ≤ B < 50)”; in experiment [1] (compound at 1 μM) it was “D (75 ≤ D)”.

As for `CN1CCC(n2cc(-c3ccc4c(c3)C(=O)N(Cc3cccc(Cl)c3)c3cc(F)ccc3N4)cn2)CC1` [I-23], the EC50 in experiment [1] (setting [3]) and in experiment [1] (setting [5]) was no less than 0.75 µM throughout.

As for `Nc1ccc2c(c1)N(Cc1ccccc1)C(=O)c1cc(-c3ccc4[nH]ccc4c3)ccc1N2` [I-14], the EC50 in experiment [1] (setting [3]) and in experiment [1] (setting [5]) was no less than 0.75 µM each time.

On to `CCC(=O)Nc1ccc2c(c1)N(Cc1ccccc1)C(=O)c1cc(-c3ccc4[nH]ccc4c3)ccc1N2` [I-16], for which the EC50 in experiment [1] (setting [3]) and in experiment [1] (setting [5]) was 0.25 to 0.5 µM in each case.

Consider `O=C1c2cc(-c3ccc(N4CCNCC4)cc3)ccc2Nc2ccc(F)cc2N1Cc1nccs1` [I-7], for which the EC50 in experiment [1] (setting [3]) and in experiment [1] (setting [5]) was no less than 0.75 µM throughout. The results for the “Remaining cell proliferation activity (% of control)” value in experiment [1] (setting [4]) and in experiment [1] (compound at 1 μM) were “C (50 ≤ C < 75)” and “D (75 ≤ D)”, respectively.

Regarding `O=C1c2cc(-c3ccc(-c4cn[nH]c4)cc3)ccc2Nc2ccc(F)cc2N1Cc1ccccc1` [I-4], the EC50 in experiment [1] (setting [3]) is no less than 0.75 µM; in experiment [1] (setting [5]), 0.25 to 0.5 µM. The “Remaining cell proliferation activity (% of control)” value in experiment [1] (setting [4]) was “A (0 ≤ A < 25)”; in experiment [1] (compound at 1 μM) it was “D (75 ≤ D)”.

As to `O=C1c2cc(-c3ccc(N4CCNCC4)cc3)ccc2Nc2ccc(F)cc2N1Cc1cccc2cc[nH]c12` [I-18], the figures for the EC50 in experiment [1] (setting [3]) and in experiment [1] (setting [5]) were no less than 0.75 µM and less than 0.25 µM, respectively.

For the compound `O=C1c2cc(-c3ccc(N4CCNCC4)cc3)ccc2Nc2ccc(F)cc2N1Cc1cccnc1` [I-6], the EC50 in experiment [1] (setting [3]) and in experiment [1] (setting [5]) was no less than 0.75 µM in each case. Moreover, the “Remaining cell proliferation activity (% of control)” value in experiment [1] (setting [4]) and in experiment [1] (compound at 1 μM) was “D (75 ≤ D)” throughout.

As to `CN1CCC(n2cc(-c3ccc4c(c3)C(=O)N(Cc3cccc(F)c3)c3cc(F)ccc3N4)cn2)CC1` [I-22], the EC50 in experiment [1] (setting [3]) and in experiment [1] (setting [5]) was no less than 0.75 µM throughout.

Broadly, the IC50 is the point on the concentration scale where inhibition reaches its midpoint. On to `CN1CCN(c2ccc(-c3ccc4c(c3)C(=O)N(Cc3ccccc3)c3cc(F)ccc3N4)cc2)CC1` [I-17], for which the IC50 in experiment [2] was less than 0.25 µM.

With `O=C1c2cc(-c3ccc(N4CCNCC4)cc3)ccc2Nc2ccc(F)cc2N1Cc1ccccc1` [I-1, 10-Benzyl-8-fluoro-2-(4-(piperazin-1-yl)phenyl)-5,10-dihydro-11H-dibenzo[b,e][1,4]diazepin-11-one], the results for the EC50 in experiment [1] (setting [3]) and in experiment [1] (setting [5]) were no less than 0.75 µM and 0.5 to 0.75 µM, respectively. Also, the “Remaining cell proliferation activity (% of control)” value in experiment [1] (setting [4]) is recorded as “B (25 ≤ B < 50)”; in experiment [1] (compound at 1 μM), “D (75 ≤ D)”. In experiment [2], the IC50 was less than 0.25 µM.

Consider `O=C1c2cc(-c3ccc4[nH]ccc4c3)ccc2Nc2ccc(F)cc2N1Cc1cccnc1` [I-9], for which the EC50 in experiment [1] (setting [3]) and in experiment [1] (setting [5]) was no less than 0.75 µM throughout. Besides, the “Remaining cell proliferation activity (% of control)” value in experiment [1] (setting [4]) and in experiment [1] (compound at 1 μM) was “D (75 ≤ D)” in each case.

Take `CN1CCC(n2cc(-c3ccc4c(c3)C(=O)N(Cc3cc(F)cc(F)c3)c3cc(F)ccc3N4)cn2)CC1` [I-24]: the EC50 in experiment [1] (setting [3]) and in experiment [1] (setting [5]) was no less than 0.75 µM throughout.
